Results published in paper PMC10337138 (Acta Neuropathologica Communications, 2023).

Experiments:
Conditions in all cases: 1 mM ATP; inhibitor
CAMK2G = CAMK2G (Homo sapiens, UniProt Q13555)
Protocol: (§1) Kinase selectivity panel Kinome profiling was conducted by AssayQuant Technologies (Marlboro, MA) using Sox chromophore technology and Sox-based peptide substrates developed for human kinases in a 384-well format. Compounds were tested at 1 µM in the presence of 1 mM ATP.

CDK1/E1 = CDK1/E1 (Homo sapiens, UniProt P06493)
Protocol: as §1

CHEK2/CHK2 = CHEK2/CHK2 (Homo sapiens, UniProt O96017)
Protocol: as §1

CRIK/CIT = CRIK/CIT (Homo sapiens, UniProt O14578)
Protocol: as §1

CSK = CSK (Homo sapiens, UniProt P41240)
Sequence of CSK (P41240 whole entry): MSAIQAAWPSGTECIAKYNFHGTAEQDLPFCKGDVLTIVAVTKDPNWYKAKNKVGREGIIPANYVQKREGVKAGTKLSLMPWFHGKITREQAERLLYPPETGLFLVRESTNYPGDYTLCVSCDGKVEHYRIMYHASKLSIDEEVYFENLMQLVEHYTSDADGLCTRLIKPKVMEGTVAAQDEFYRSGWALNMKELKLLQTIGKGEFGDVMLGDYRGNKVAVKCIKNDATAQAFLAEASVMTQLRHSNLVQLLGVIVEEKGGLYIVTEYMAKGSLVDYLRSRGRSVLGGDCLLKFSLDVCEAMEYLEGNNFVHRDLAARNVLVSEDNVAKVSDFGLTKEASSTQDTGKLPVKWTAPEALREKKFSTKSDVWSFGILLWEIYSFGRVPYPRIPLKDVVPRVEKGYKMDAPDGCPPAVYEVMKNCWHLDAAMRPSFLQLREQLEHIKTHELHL
Protocol: as §1

CSNK1E/CK1E = CSNK1E/CK1E (Homo sapiens, UniProt P49674)
Protocol: as §1

CSNK1G2/CK1G2 = CSNK1G2/CK1G2 (Homo sapiens, UniProt P78368)
Protocol: as §1

DDR2 = DDR2 (Homo sapiens, UniProt Q16832)
Protocol: as §1

DYRK1A = DYRK1A (Homo sapiens, UniProt Q13627)
Protocol: as §1

EPHB1 = EPHB1 (Homo sapiens, UniProt P54762)
Protocol: as §1

FAM20C = FAM20C (Homo sapiens, UniProt Q8IXL6)
Protocol: as §1

FLT1 = FLT1 (Homo sapiens, UniProt P17948)
Protocol: as §1

FYNB = target: T1, FYNB (Homo sapiens, UniProt P06241)
T1 construct: gene FYN
T1 sequence (P06241 whole entry): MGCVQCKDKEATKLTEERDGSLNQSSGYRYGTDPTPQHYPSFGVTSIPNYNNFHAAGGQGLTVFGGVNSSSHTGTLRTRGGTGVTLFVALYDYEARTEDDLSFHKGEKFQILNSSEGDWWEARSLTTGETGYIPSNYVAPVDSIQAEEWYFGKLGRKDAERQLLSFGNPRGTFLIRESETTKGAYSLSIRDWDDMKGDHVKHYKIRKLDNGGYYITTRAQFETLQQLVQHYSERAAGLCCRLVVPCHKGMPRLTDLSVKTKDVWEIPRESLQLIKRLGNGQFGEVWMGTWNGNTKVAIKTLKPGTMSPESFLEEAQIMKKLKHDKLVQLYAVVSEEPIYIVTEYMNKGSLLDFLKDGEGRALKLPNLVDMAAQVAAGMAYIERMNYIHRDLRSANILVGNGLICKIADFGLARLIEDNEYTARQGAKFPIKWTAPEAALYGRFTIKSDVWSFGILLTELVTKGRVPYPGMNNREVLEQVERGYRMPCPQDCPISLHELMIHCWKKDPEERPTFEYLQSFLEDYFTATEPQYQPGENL
Protocol: as §1

GRK5 = GRK5 (Homo sapiens, UniProt P34947)
Protocol: as §1

KDR = KDR (Homo sapiens, UniProt P35968)
Sequence of KDR (P35968 whole entry): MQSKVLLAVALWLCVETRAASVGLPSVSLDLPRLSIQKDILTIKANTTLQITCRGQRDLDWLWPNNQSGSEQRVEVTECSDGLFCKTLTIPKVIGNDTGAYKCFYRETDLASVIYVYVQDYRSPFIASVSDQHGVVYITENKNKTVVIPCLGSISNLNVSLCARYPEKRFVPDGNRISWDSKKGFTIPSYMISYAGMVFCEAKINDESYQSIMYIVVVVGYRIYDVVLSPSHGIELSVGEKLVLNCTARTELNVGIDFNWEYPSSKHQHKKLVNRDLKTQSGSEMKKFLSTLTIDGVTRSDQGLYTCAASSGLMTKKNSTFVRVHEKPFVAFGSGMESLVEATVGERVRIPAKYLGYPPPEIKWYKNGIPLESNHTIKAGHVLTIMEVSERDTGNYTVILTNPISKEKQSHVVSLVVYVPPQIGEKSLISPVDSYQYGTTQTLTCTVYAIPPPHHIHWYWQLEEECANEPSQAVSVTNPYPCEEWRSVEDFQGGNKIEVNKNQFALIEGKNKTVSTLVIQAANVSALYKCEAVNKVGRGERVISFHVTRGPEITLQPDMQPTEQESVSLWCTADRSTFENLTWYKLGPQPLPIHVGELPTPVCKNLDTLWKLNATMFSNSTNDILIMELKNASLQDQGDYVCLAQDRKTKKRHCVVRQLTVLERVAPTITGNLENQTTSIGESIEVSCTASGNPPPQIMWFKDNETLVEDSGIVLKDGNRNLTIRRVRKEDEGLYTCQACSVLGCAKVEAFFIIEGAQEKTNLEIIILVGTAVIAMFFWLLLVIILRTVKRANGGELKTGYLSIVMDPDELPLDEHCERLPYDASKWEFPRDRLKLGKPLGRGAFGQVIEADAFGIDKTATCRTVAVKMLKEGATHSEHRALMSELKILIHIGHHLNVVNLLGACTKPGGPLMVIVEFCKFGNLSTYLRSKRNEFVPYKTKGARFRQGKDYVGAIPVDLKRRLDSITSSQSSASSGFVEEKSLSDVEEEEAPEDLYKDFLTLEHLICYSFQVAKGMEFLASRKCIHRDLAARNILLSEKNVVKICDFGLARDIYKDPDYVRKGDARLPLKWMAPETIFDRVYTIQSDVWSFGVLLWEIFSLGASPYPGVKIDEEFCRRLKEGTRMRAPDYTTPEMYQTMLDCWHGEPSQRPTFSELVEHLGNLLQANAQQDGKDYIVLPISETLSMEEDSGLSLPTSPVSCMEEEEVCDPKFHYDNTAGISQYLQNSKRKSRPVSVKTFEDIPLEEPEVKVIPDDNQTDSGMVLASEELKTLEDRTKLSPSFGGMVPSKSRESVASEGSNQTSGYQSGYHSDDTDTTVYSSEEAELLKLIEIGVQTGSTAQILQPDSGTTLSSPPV
Protocol: as §1

KSR1 = KSR1 (Homo sapiens, UniProt Q8IVT5)
Protocol: as §1

LIMK1 = LIMK1 (Homo sapiens, UniProt P53667)
Protocol: as §1

MAK = MAK (Homo sapiens, UniProt P20794)
Protocol: as §1

MAP3K10 = MAP3K10 (Homo sapiens, UniProt Q02779)
Protocol: as §1

MAP3K8 = MAP3K8 (Homo sapiens, UniProt P41279)
Protocol: as §1

MLK4 = target: T2, MLK4 (Homo sapiens, UniProt Q5TCX8)
T2 construct: gene MAP3K21
Protocol: as §1

MUSK = MUSK (Homo sapiens, UniProt O15146)
Protocol: as §1

MYLK/MLCK = MYLK/MLCK (Homo sapiens, UniProt Q15746)
Protocol: as §1

MYLK3 = MYLK3 (Homo sapiens, UniProt Q32MK0)
Protocol: as §1

MYO3B = MYO3B (Homo sapiens, UniProt Q8WXR4)
Protocol: as §1

NTRK3/TRKC = NTRK3/TRKC (Homo sapiens, UniProt Q16288)
Protocol: as §1

PIM2 = PIM2 (Homo sapiens, UniProt Q9P1W9)
Protocol: as §1

PRKAA1/AMPK111 = PRKAA1/AMPK111 (Homo sapiens, UniProt Q13131)
Sequence of PRKAA1/AMPK111 (Q13131 whole entry): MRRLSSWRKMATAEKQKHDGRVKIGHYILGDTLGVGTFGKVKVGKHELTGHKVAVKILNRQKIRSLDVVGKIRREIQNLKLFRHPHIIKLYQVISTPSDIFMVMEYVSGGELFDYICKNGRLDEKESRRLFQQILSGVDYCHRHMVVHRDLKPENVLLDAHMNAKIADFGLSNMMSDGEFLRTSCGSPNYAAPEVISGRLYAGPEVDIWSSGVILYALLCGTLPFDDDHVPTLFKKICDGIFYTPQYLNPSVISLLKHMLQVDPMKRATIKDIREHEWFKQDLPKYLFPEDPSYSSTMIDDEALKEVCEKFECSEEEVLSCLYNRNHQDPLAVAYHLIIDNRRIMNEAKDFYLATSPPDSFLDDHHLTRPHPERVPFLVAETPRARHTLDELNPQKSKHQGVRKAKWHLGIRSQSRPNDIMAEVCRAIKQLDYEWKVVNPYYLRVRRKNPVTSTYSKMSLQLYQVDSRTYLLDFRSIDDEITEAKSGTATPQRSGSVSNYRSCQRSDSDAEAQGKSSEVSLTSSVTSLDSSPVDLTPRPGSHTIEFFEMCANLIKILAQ
Sequence of PRKAA1/AMPK111 (P54619 whole entry partner): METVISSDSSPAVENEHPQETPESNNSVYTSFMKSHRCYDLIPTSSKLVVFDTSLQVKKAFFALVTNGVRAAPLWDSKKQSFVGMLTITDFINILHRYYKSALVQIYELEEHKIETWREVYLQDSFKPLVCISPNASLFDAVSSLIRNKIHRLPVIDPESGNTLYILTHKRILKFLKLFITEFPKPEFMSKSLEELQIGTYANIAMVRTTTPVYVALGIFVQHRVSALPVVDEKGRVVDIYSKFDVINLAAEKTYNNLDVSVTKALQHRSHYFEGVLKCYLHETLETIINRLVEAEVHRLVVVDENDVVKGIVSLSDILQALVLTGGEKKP
Sequence of PRKAA1/AMPK111 (Q9Y478 whole entry partner): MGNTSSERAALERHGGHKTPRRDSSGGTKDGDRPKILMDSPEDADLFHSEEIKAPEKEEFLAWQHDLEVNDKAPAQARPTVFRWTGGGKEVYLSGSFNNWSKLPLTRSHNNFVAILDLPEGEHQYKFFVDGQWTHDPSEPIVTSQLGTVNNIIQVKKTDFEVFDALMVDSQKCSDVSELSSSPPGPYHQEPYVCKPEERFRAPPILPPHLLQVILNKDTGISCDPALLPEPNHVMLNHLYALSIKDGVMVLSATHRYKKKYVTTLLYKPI
Protocol: as §1

PRKACA = PRKACA (Homo sapiens, UniProt P17612)
Protocol: as §1

RIPK2 = RIPK2 (Homo sapiens, UniProt O43353)
Protocol: as §1

RPS6KA5/MSK1 = RPS6KA5/MSK1 (Homo sapiens, UniProt O75582)
Sequence of RPS6KA5/MSK1 (O75582 whole entry): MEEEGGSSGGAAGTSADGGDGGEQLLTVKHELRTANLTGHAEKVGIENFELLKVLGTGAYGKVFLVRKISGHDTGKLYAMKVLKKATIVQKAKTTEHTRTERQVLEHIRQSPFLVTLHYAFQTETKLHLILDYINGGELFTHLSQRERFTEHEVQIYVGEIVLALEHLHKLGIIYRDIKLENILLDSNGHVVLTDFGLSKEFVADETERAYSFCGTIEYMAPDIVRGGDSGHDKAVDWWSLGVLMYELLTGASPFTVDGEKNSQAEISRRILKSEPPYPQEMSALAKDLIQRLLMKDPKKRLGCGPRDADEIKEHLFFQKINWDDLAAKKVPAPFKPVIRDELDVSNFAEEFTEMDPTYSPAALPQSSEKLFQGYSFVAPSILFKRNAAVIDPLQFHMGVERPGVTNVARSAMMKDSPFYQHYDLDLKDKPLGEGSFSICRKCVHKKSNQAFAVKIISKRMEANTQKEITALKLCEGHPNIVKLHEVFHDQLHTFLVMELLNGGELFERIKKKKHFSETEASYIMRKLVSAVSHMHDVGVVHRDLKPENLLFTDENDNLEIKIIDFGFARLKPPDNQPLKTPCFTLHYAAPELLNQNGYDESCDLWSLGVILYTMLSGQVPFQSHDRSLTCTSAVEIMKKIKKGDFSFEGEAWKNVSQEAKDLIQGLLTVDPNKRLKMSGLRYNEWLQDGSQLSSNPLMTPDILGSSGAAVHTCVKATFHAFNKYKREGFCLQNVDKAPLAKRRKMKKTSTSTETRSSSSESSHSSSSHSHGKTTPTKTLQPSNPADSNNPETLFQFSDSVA
Protocol: as §1

SIK3 = SIK3 (Homo sapiens, UniProt Q9Y2K2)
Protocol: as §1

STK25/YSK1 = STK25/YSK1 (Homo sapiens, UniProt O00506)
Sequence of STK25/YSK1 (O00506 whole entry): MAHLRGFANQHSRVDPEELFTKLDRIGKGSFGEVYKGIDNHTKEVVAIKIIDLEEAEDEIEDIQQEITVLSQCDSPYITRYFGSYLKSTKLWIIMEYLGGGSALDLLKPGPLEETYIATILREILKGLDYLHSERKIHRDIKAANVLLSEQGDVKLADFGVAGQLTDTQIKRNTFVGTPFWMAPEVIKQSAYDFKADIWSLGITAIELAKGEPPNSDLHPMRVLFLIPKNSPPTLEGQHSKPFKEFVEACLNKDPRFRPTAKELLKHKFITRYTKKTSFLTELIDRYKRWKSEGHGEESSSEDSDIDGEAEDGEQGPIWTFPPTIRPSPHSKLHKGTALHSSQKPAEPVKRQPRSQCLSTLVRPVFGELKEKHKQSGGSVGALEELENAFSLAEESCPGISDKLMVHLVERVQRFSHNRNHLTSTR
Protocol: as §1

TAOK1 = TAOK1 (Homo sapiens, UniProt Q7L7X3)
Protocol: as §1

TEK/TIE2 = TEK/TIE2 (Homo sapiens, UniProt Q02763)
Protocol: as §1

TYK2(JH1) = TYK2(JH1) (Homo sapiens, UniProt P29597)
Protocol: as §1

ULK1 = ULK1 (Homo sapiens, UniProt O75385)
Protocol: as §1

ZNF33A/ZAK = target: T3, ZNF33A/ZAK (Homo sapiens, UniProt Q9NYL2)
T3 construct: gene MAP3K20
Protocol: as §1

C=CC(=O)N1CCC[C@@H](n2nc(-c3ccc(Oc4ccccc4)cc3)c3c(N)ncnc32)C1 [Ibrutinib]
1 µM GBD00276 (ibrutinib), % inhibition (CAMK2G): 8.429%
1 µM GBD00276 (ibrutinib), % inhibition (CDK1/E1): -2.236%
1 µM GBD00276 (ibrutinib), % inhibition (CHEK2/CHK2): -10.68%
1 µM GBD00276 (ibrutinib), % inhibition (CRIK/CIT): -0.4372%
1 µM GBD00276 (ibrutinib), % inhibition (CSK): 61.63%
1 µM GBD00276 (ibrutinib), % inhibition (CSNK1E/CK1E): 22.68%
1 µM GBD00276 (ibrutinib), % inhibition (CSNK1G2/CK1G2): 17.59%
1 µM GBD00276 (ibrutinib), % inhibition (DDR2): 20.22%
1 µM GBD00276 (ibrutinib), % inhibition (DYRK1A): 15.66%
1 µM GBD00276 (ibrutinib), % inhibition (EPHB1): -0.8801%
1 µM GBD00276 (ibrutinib), % inhibition (FAM20C): 3.541%
1 µM GBD00276 (ibrutinib), % inhibition (FLT1): 31.87%
1 µM GBD00276 (ibrutinib), % inhibition (FYNB): 30.61%
1 µM GBD00276 (ibrutinib), % inhibition (GRK5): -10.93%
1 µM GBD00276 (ibrutinib), % inhibition (KDR): 29.01%
1 µM GBD00276 (ibrutinib), % inhibition (KSR1): 8.4%
1 µM GBD00276 (ibrutinib), % inhibition (LIMK1): 4.583%
1 µM GBD00276 (ibrutinib), % inhibition (MAK): 9.929%
1 µM GBD00276 (ibrutinib), % inhibition (MAP3K10): -7.966%
1 µM GBD00276 (ibrutinib), % inhibition (MAP3K8): -11.27%
1 µM GBD00276 (ibrutinib), % inhibition (MLK4): 4.614%
1 µM GBD00276 (ibrutinib), % inhibition (MUSK): 8.501%
1 µM GBD00276 (ibrutinib), % inhibition (MYLK/MLCK): -5.288%
1 µM GBD00276 (ibrutinib), % inhibition (MYLK3): 0.8658%
1 µM GBD00276 (ibrutinib), % inhibition (MYO3B): -1.464%
1 µM GBD00276 (ibrutinib), % inhibition (NTRK3/TRKC): 9.419%
1 µM GBD00276 (ibrutinib), % inhibition (PIM2): -3.683%
1 µM GBD00276 (ibrutinib), % inhibition (PRKAA1/AMPK111): 6.623%
1 µM GBD00276 (ibrutinib), % inhibition (PRKACA): -16.42%
1 µM GBD00276 (ibrutinib), % inhibition (RIPK2): 98.43%
1 µM GBD00276 (ibrutinib), % inhibition (RPS6KA5/MSK1): -5.427%
1 µM GBD00276 (ibrutinib), % inhibition (SIK3): -15.95%
1 µM GBD00276 (ibrutinib), % inhibition (STK25/YSK1): 10.23%
1 µM GBD00276 (ibrutinib), % inhibition (TAOK1): 0.7765%
1 µM GBD00276 (ibrutinib), % inhibition (TEK/TIE2): 2.512%
1 µM GBD00276 (ibrutinib), % inhibition (TYK2(JH1)): 12.87%
1 µM GBD00276 (ibrutinib), % inhibition (ULK1): -8.778%
1 µM GBD00276 (ibrutinib), % inhibition (ZNF33A/ZAK): -3.326%
